These results are taken from PubChem BioAssay AID1963450 (Molecular Pharmacology Branch, DTP, NCI, 2024).

Several values for one entry are separate records, joined by “and”; a condition that tells them apart may be missing. Identical values can stand only once.

This experiment relates to 556581-035-R-J1-PDC complex spheroid growth. Kind of experiment: Anticancer human tumor 556581-035-R-J1-PDC patient-derived ovarian carcinoma cell line growth inhibition [Asc]. Particulars: for viability, T/C: stronger effect = lower value. The essentials: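 Concentration series start at each agent's clinical Cmax, or at 10 microM when none is established, and drop in half-log steps; agents are applied alone or together to complex spheroids built with HUVEC and hMSC.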

Where [1] appears, read: curve of first compound, second compound 0.1 µM.
Setting [2] is: curve of first compound, second compound 0.316 µM.
Setting [3] is: curve of first compound, second compound 1 µM.
[4] abbreviates: second compound 0.1 µM, first compound 0.0316 µM.
Where [5] appears, read: second compound 0.1 µM, first compound 0.1 µM.
Where [6] appears, read: second compound 0.1 µM, first compound 0.316 µM.
[7] abbreviates: second compound 0.1 µM, first compound 1 µM.
Where [8] appears, read: second compound 0.316 µM, first compound 0.0316 µM.
Setting [9] is: second compound 0.316 µM, first compound 0.1 µM.
[10] abbreviates: second compound 0.316 µM, first compound 0.316 µM.
The mark [11] stands for this setting: second compound 0.316 µM, first compound 1 µM.
[12] abbreviates: second compound 1 µM, first compound 0.0316 µM.
Setting [13] is: second compound 1 µM, first compound 0.1 µM.
Where [14] appears, read: second compound 1 µM, first compound 0.316 µM.
Where [15] appears, read: second compound 1 µM, first compound 1 µM.
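Note: spheroids exposed to agents for 7 days before viability read.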

Regarding `CNC(C)C(=O)NC1CN(S(=O)(=O)c2cccc(S(=O)(=O)N3CCC4CCC(C(=O)NC(c5ccccc5)c5ccccc5)N4C(=O)C(NC(=O)C(C)NC)C3)c2)CCC2CCC(C(=O)NC(c3ccccc3)c3ccccc3)N2C1=O` (configuration not stated) + Cc1c(S(C)(=O)=O)c(-c2cc(F)cc(N3CCN(c4ccc(NS(=O)(=O)c5ccc(NC(CCN6CCC(C(=O)OCCCP(=O)(O)O)CC6)CSc6ccccc6)c(S(=O)(=O)C(F)(F)F)c5)cc4)CC3)c2)c(-c2ccc(Cl)cc2)n1C(C)C, the IC50 (in general, the concentration that inhibits the measured activity by half) under setting [1] was found to be 87.3 nM; the IC50 under setting [2] worked out at 73.8 nM; the IC50 under setting [3] worked out at 49.9 nM; the IC50 (curve of first compound, second compound 3.16 µM) turned out to be 6.27 nM; the IC50 (curve of first compound, second compound 10 µM) was less than 3.16 nM. The viability, T/C (usually the ratio of treated to control) is 68.6% (second compound 0.1 µM, first compound 0.00316 µM); 69.5% (second compound 0.1 µM, first compound 0.01 µM); 60% under setting [4]; 48% under setting [5]; 49.1% under setting [6]; 41.1% under setting [7]. Also, the viability, T/C reads like this: (second compound 0.316 µM, first compound 0.00316 µM) 60.2%; (second compound 0.316 µM, first compound 0.01 µM) 73.3%; under setting [8], 68.4%; under setting [9], 43.7%; under setting [10], 41%; under setting [11], 26%. Moreover, the viability, T/C was 61.8% (second compound 1 µM, first compound 0.00316 µM); 53.2% (second compound 1 µM, first compound 0.01 µM); 67.3% under setting [12]; 33.5% under setting [13]; 28.6% under setting [14]; 26.8% under setting [15]. Further, the viability, T/C reads like this: (second compound 3.16 µM, first compound 0.00316 µM) 49.7%; (second compound 3.16 µM, first compound 0.01 µM) 54%; (second compound 3.16 µM, first compound 0.0316 µM) 34.7%; (second compound 3.16 µM, first compound 0.1 µM) 35.5%; (second compound 3.16 µM, first compound 0.316 µM) 24.5%; (second compound 3.16 µM, first compound 1 µM) 24.5%. The viability, T/C runs as follows: (second compound 10 µM, first compound 0.00316 µM) 49.4%; (second compound 10 µM, first compound 0.01 µM) 35.1%; (second compound 10 µM, first compound 0.0316 µM) 42.4%; (second compound 10 µM, first compound 0.1 µM) 33.6%; (second compound 10 µM, first compound 0.316 µM) 27.8%; (second compound 10 µM, first compound 1 µM) 30.7%.
On to `CNC(C)C(=O)NC1CN(S(=O)(=O)c2cccc(S(=O)(=O)N3CCC4CCC(C(=O)NC(c5ccccc5)c5ccccc5)N4C(=O)C(NC(=O)C(C)NC)C3)c2)CCC2CCC(C(=O)NC(c3ccccc3)c3ccccc3)N2C1=O` (configuration not stated), for which the viability, T/C (compound 0.00316 µM) was 96.2% and 82.3% and 87.2%; the viability, T/C (compound 0.0316 µM) is 89.3% [middle of 14 runs]; the viability, T/C (compound 0.316 µM) is 74.3% [middle of 14 runs]. Also, the IC50 (compound alone, run of 10/24/2022) was more than 1000 nM; the IC50 (compound alone, run of 11/15/2022) is more than 1000 nM; the IC50 (curve of compound) is more than 1000 nM.
On to `C#Cc1c(F)ccc2cc(O)cc(-c3ncc4c(N5CC6CCC(C5)N6)nc(OCC56CCCN5CC(F)C6)nc4c3F)c12` (configuration not stated) + CNC(C)C(=O)NC1CN(S(=O)(=O)c2cccc(S(=O)(=O)N3CCC4CCC(C(=O)NC(c5ccccc5)c5ccccc5)N4C(=O)C(NC(=O)C(C)NC)C3)c2)CCC2CCC(C(=O)NC(c3ccccc3)c3ccccc3)N2C1=O, for which the IC50 was more than 10000 nM (curve of first compound, second compound 0.00316 µM); more than 10000 nM (curve of first compound, second compound 0.01 µM); more than 10000 nM (curve of first compound, second compound 0.0316 µM); more than 10000 nM under setting [1]; 6870 nM under setting [2]; 5290 nM under setting [3]. The viability, T/C is, setting by setting: (second compound 0.00316 µM, first compound 0.0316 µM) 101%; (second compound 0.00316 µM, first compound 0.1 µM) 103%; (second compound 0.00316 µM, first compound 0.316 µM) 103%; (second compound 0.00316 µM, first compound 1 µM) 99.6%; (second compound 0.00316 µM, first compound 3.16 µM) 98%; (second compound 0.00316 µM, first compound 10 µM) 86.8%. Besides, the viability, T/C (second compound 0.01 µM, first compound 0.0316 µM) is 105%; the viability, T/C (second compound 0.01 µM, first compound 0.1 µM) was 96.6%; the viability, T/C (second compound 0.01 µM, first compound 0.316 µM) is 100%; the viability, T/C (second compound 0.01 µM, first compound 1 µM) was 107%; the viability, T/C (second compound 0.01 µM, first compound 3.16 µM) is 87.6%; the viability, T/C (second compound 0.01 µM, first compound 10 µM) is 71%. Further, the viability, T/C by setting is: (second compound 0.0316 µM, first compound 0.0316 µM) 96.7%; (second compound 0.0316 µM, first compound 0.1 µM) 95.9%; (second compound 0.0316 µM, first compound 0.316 µM) 88.5%; (second compound 0.0316 µM, first compound 1 µM) 87.7%; (second compound 0.0316 µM, first compound 3.16 µM) 87%; (second compound 0.0316 µM, first compound 10 µM) 60.5%. Also, the viability, T/C is 92% under setting [4]; 88.8% under setting [5]; 76.8% under setting [6]; 78% under setting [7]; 77.9% (second compound 0.1 µM, first compound 3.16 µM); 62% (second compound 0.1 µM, first compound 10 µM). In addition, the viability, T/C reads like this: under setting [8], 82.6%; under setting [9], 65.4%; under setting [10], 75.3%; under setting [11], 66.4%; (second compound 0.316 µM, first compound 3.16 µM) 62.8%; (second compound 0.316 µM, first compound 10 µM) 44%. The viability, T/C runs as follows: under setting [12], 65.2%; under setting [13], 64.3%; under setting [14], 65.6%; under setting [15], 75.4%; (second compound 1 µM, first compound 3.16 µM) 57.9%; (second compound 1 µM, first compound 10 µM) 36.3%.
For `O=C(c1ccc(F)c(F)c1Nc1ccc(I)cc1F)N1CC(O)([C@@H]2CCCCN2)C1`, the viability, T/C by setting is: (compound 0.00316 µM) 108% and 79.6% and 89.6%; (compound 0.01 µM) 109% and 97.5% and 101%; (compound 0.0316 µM) 59.3% and 70.2% and 121%; (compound 0.1 µM) 63.9% and 59.8% and 92%; (compound 0.316 µM) 50.6% and 37.8% and 42%; (compound 1 µM) 7.45% and 10.7% and 14%. Also, the IC50 (curve of compound) was 171 nM and 164 nM and 263 nM.
Turning to `Cc1nc(N2CCC3(CC2)COC(C)C3N)c(CO)nc1Sc1ccnc(N)c1Cl` (configuration not stated), the viability, T/C runs as follows: (compound 0.00949 µM) 111% (2×) and 89.8%; (compound 0.03 µM) 101% and 92.6% and 91.2%; (compound 0.0949 µM) 87.5% and 79.8% and 84%; (compound 0.3 µM) 81.9% and 68.8% and 83.9%; (compound 0.949 µM) 62.8% and 61.9% and 56.5%; (compound 3 µM) 44.7% and 51% and 51.8%. The IC50 (curve of compound) was 2290 nM and > 3000 nM.
